In patent US12655462B2, “PLK1 target phosphorylation status and treatment of cancer with PLK1 inhibitors” (Cardiff Oncology, Inc., priority 2018, dated 2026):
Read-outs that look alike come from different tables or passages of the source. Values belong to the molecule of their own block, whether it stands above or below them.

Tests used:
[1] = molecular target: T1, PLK1 phosphorylation of TCTP in MV4-11 and HL-60 (Homo sapiens, UniProt P53350); test: pTCTP in AML cell lines MV4-11 and HL-60, western blot (FIG. 2C); assay type: cell-based; settings: MV4-11 and HL-60, 15 minutes; onvansertib 0.1 or 0.5 μM, cytarabine 10 or 100 nM, decitabine 0.2 or 1 μM
T1 construct: endogenous in cells; host or cells: MV4-11 and HL-60 AML cell lines
T1 sequence (P53350 whole entry): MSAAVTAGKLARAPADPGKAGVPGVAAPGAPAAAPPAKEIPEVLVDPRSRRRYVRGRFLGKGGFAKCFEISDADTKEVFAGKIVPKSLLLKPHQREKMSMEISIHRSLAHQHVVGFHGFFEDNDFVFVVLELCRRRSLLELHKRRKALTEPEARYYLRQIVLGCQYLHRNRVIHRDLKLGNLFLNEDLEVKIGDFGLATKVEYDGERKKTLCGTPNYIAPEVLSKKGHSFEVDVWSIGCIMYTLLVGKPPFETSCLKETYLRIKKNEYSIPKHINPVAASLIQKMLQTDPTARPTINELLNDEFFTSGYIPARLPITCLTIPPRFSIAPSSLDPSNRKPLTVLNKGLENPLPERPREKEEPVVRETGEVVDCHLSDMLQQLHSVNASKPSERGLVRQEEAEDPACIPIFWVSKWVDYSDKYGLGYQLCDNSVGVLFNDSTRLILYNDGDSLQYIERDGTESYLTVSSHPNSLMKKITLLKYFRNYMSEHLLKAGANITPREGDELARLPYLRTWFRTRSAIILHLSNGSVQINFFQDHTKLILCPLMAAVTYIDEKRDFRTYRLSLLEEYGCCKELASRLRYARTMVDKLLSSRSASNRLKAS
Method: (§1) Protein extracts were prepared from PBMC and cell lines using M-PER buffer (ThermoFisher) with 150 mM NaCl and 1× protease and phosphatase inhibitors cocktails (ThermoFisher). Protein concentration was measured with the Pierce BCA protein assay kit (ThermoFisher).
Western blots were performed as Simple Western™ assays using the Wes system (ProteinSimple), a combination of capillary electrophoresis and immunodetection techniques, following the manufacturer's protocols. Briefly, extracts with equal protein concentration were mixed with 0.1× sample buffer and 5× fluorescent master mix. Denatured protein samples, biotinylated ladder (ProteinSimple), primary antibodies, horseradish peroxidase (HRP)-conjugated secondary antibody (ProteinSimple), chemiluminescence substrate and wash buffer were dispensed into respective wells of the assay plate and placed in Wes equipment. Primary antibodies were purchased from Cell Signaling Technology: phospho-TCTP-Ser46 (#5251) and TCTP (#5128), and used at a concentration of 1:50. Quantitative analysis was performed using Compass software (ProteinSimple). […]
AML cell lines MV4-11 and HL-60 were treated for 15 minutes with onvansertib (PCM-075) (0.1 or 0.5 μM), cytarabine (10 or 100 nM) or decitabine (0.2 or 1 μM). Proteins were then extracted from the cells and assessed for pTCTP.

[2] = test system: disseminated model of AML; settings: combination therapy with cytarabine; cited from earlier work
[3] = molecular target: PLK1 (Homo sapiens, UniProt P53350); settings: versus previous PLK inhibitors; cited from earlier work
Sequence of PLK1 (P53350 whole entry): as above

[4] = test system: cell lines, both from solid as well as hematologic tumors; settings: large number of cell lines, solid and hematologic tumors; cited from earlier work
[5] = test system: xenograft tumor; settings: mice, oral administration, well tolerated doses; cited from earlier work
[6] = test system: advanced/metastatic solid tumors; settings: adult subjects; cited from earlier work
[7] = molecular target: T2, PLK1 phosphorylation of TCTP (Homo sapiens, UniProt P53350); test: Inhibition of pTCTP in vitro, western blot (FIG. 2B)
T2 sequence (P53350 whole entry): as above

[8] = test system: acute myeloid leukemia (AML); test: Clinical response of AML patients, trial NCT03303339 (leukemic cells in blood and bone marrow); assay type: in vivo, human
Excerpt: Patient data provided herein is from patients in clinical trial NCT03303339, Onvansertib in Combination With Either Low-dose Cytarabine (LDAC) or Decitabine in Adult Patients With Acute Myeloid Leukemia (AML) (ClinicalTrials.gov).
Responders were defined as patients showing a decrease in circulating and bone marrow blasts during treatment.

[9] = test system: HT29 human colon adenocarcinoma xenografts; settings: combination with irinotecan, compared to each agent alone; cited from earlier work
[10] = molecular target: T2, PLK1 phosphorylation of TCTP; test: pTCTP (Ser46) in patient blood PBMC before and 3 hours after onvansertib; assay type: in vivo; set-up: Protein extracts were prepared from PBMC and cell lines using M-PER buffer; from tissue; host or cells: peripheral blood mononuclear cells from AML patients' blood; settings: for decrease in pTCTP in patient blood: three patients, as early as three hours
Method: Determination of phosphorylation of serine 46 of TCTP in blood was as follows. Peripheral blood mononuclear cells (PBMC) were isolated from a Cellsave blood tube (Menarini Silicon Biosystems) using Leucosep centrifuge tubes (VWR) and Histopaque-1077 (Sigma) according to the manufacturer's recommendations.
as §1
Western blots were performed as Simple Western™ assays using the Wes system (ProteinSimple), a combination of capillary electrophoresis and immunodetection techniques, following the manufacturer's protocols. Briefly, extracts with equal protein concentration were mixed with 0.1× sample buffer and 5× fluorescent master mix. Denatured protein samples, biotinylated ladder (ProteinSimple), primary antibodies, horseradish peroxidase (HRP)-conjugated secondary antibody (ProteinSimple), chemiluminescence substrate and wash buffer were dispensed into respective wells of the assay plate and placed in Wes equipment. Primary antibodies were purchased from Cell Signaling Technology: phospho-TCTP-Ser46 (#5251) and TCTP (#5128), and used at a concentration of 1:50. Quantitative analysis was performed using Compass software (ProteinSimple). Signal intensity (area) of pTCTP was normalized to the peak area of TCTP and reported as % pTCTP.
PLK1 inhibition in patients was assessed in blood taken 3-hours following administration of onvansertib at peak concentration (Cmax).
Blood samples were collected before, and 3 hours after, onvansertib treatment from patients enrolled in the trial described in Example 1. The onvansertib treatments were 12, 18, 27, or 40 mg/m^2. pTCTP and TCTP were assessed by Western-Blot and % pTCTP (pTCTP/TCTP) was quantified.
In these studies, biomarker positivity was defined as ≥50% decrease in % pTCTP from T=0 to T=3h.

[11] = test system: cancer cell lines; settings: cited from earlier work
[12] = cited from earlier work; for half-life: oral administration
[13] = combination with LDAC or decitabine

Compound: Nc1ccn([C@@H]2O[C@H](CO)[C@@H](O)[C@@H]2O)c(=O)n1 [cytarabine]
inhibition of pTCTP [1]: but not cytarabine or decitabine, inhibited pTCTP

inhibition of pTCTP [1]: inhibited pTCTP | decrease of pTCTP in cells of non-responders ([10]; 5 non-responders, higher dose 18 mg/m^2): did not show a decrease of pTCTP | decrease in pTCTP ([10]; the one biomarker negative patient with objective response): 40%
Compound: CN1CCN(c2ccc(OC(F)(F)F)c(Nc3ncc4c(n3)-c3c(c(C(N)=O)nn3CCO)CC4)c2)CC1 [onvansertib, 1-(2-hydroxyethyl)-8-{[5-(4-methylpiperazin-1-yl)-2-(trifluoromethoxy)phenyl]amino}-4,5-dihydro-1H-pyrazolo[4,3-h] quinazoline-3-carboxamide]
survival of animals [2]: prolonged survival | selectivity for PLK1 [3]: high selectivity for PLK1 only | potency in proliferation assays [4]: low nanomolar activity | xenograft tumor growth [5]: inhibits xenograft tumor growth | evaluable patients with stable disease [6]: 5 of 16 | recommended phase 2 dose [6]: 24 mg/m^2 | inhibition of pTCTP in vitro [7]: inhibits pTCTP in vitro, in a dose-dependent manner | biomarker positive patients with a decrease in BM blasts≥50% [8, 13]: six out of the nine | patients with complete response [CR] or CR with incomplete hematological recovery [CRi] [8, 13]: Four | patients exhibiting a response (decrease in leukemic cells in blood and bone marrow) ([8]; in combination with low-dose cytarabine (LDAC) or decitabine): Three of 6 | leukemic cells in bone marrow, decrease ([8]; patient 07-009, combination with decitabine): 96% to 55% | leukemic cells in bone marrow, decrease ([8]; patient 07-011, combination with decitabine): 55% to 15% | tumor regression [9]: enhanced tumor regression | decrease in pTCTP in patient blood ([10]; onvansertib and LDAC): only the responder showed a decrease in pTCTP | decrease in pTCTP in patient blood ([10]; onvansertib and decitabine): only the two responders showed a decrease in pTCTP | mitotic cell-cycle arrest followed by apoptosis [11]: potently causes a mitotic cell-cycle arrest followed by apoptosis | half-life [12]: about 24 hours | half-life ([12]; listed as Onvansertib): ~24 h | oral bioavailability ([12]; rodent and nonrodent species): good oral bioavailability
